Compound in the assay “MK-2206 + Trametinib”: NC1(c2ccc(-c3nc4ccn5c(=O)[nH]nc5c4cc3-c3ccccc3)cc2)CCC1 [MK-2206] + CC(=O)Nc1cccc(-n2c(=O)n(C3CC3)c(=O)c3c(Nc4ccc(I)cc4F)n(C)c(=O)c(C)c32)c1 [Trametinib] (partner 0.02 µM)
Put plainly: relative viability (nuclei count vs DMSO), 5 days (fraction); higher = more cells survive. In outline:
(§1)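 The day after seeding in 1536-well plates, lung cancer cell lines were treated by pin tool with a single drug, or with a fixed anchor-drug dose together with five library-drug doses (not always all listed) in √10 steps. After 5 days, a combined fix-and-stain solution (final 0.05% Triton X-100, 1% formaldehyde, 1 ug/ml Hoechst) was added. Nuclei counted on 4× images gave relative viability as treated counts over vehicle counts, reported as the median of duplicate plates.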

Compound in the assay “Pictilisib + Decitabine”: CS(=O)(=O)N1CCN(Cc2cc3nc(-c4cccc5[nH]ncc45)nc(N4CCOCC4)c3s2)CC1 [Pictilisib] + Nc1ncn([C@H]2C[C@H](O)[C@@H](CO)O2)c(=O)n1 [Decitabine] (partner 2 µM)
The description is as above. In outline:
as §1

As to HCC-366, the relative viability worked out at 0.302 in the assay with MK-2206 + Trametinib (first compound 0.01 µM); 0.384 in the assay with MK-2206 + Trametinib (first compound 0.03162 µM); 0.204 with MK-2206 + Trametinib (first compound 0.3162 µM); 0.223 with MK-2206 + Trametinib (first compound 1 µM); 0.335 in the assay with Pictilisib + Decitabine (first compound 0.02 µM); 0.304 with Pictilisib + Decitabine (first compound 0.06325 µM). Further, the figures for the relative viability in the assay with Pictilisib + Decitabine (first compound 0.6325 µM) and in the assay with Pictilisib + Decitabine (first compound 2 µM) were 0.194 and 0.114, respectively.
On to EKVX, for which the relative viability in the assay with MK-2206 + Trametinib (first compound 0.01 µM) was determined as 0.326; with MK-2206 + Trametinib (first compound 0.03162 µM), 0.398; with MK-2206 + Trametinib (first compound 0.3162 µM), 0.275; with MK-2206 + Trametinib (first compound 1 µM) it was 0.289; with Pictilisib + Decitabine (first compound 0.02 µM) it was 0.318; with Pictilisib + Decitabine (first compound 0.06325 µM) it was 0.334. Besides, the figures for the relative viability with Pictilisib + Decitabine (first compound 0.6325 µM) and with Pictilisib + Decitabine (first compound 2 µM) were 0.249 and 0.195, respectively.
As to NCI-H1993, the relative viability is 0.61 in the assay with MK-2206 + Trametinib (first compound 0.01 µM); 0.422 with MK-2206 + Trametinib (first compound 0.03162 µM); 0.43 in the assay with MK-2206 + Trametinib (first compound 0.3162 µM); 0.419 in the assay with MK-2206 + Trametinib (first compound 1 µM); 0.692 in the assay with Pictilisib + Decitabine (first compound 0.02 µM); 0.483 with Pictilisib + Decitabine (first compound 0.06325 µM). The figures for the relative viability with Pictilisib + Decitabine (first compound 0.6325 µM) and in the assay with Pictilisib + Decitabine (first compound 2 µM) were 0.459 and 0.458, respectively.
For NCI-H522, the relative viability with MK-2206 + Trametinib (first compound 0.01 µM) was determined as 0.817; with MK-2206 + Trametinib (first compound 0.03162 µM) it was 0.746; in the assay with MK-2206 + Trametinib (first compound 0.3162 µM), 0.635; with MK-2206 + Trametinib (first compound 1 µM) it was 0.672; in the assay with Pictilisib + Decitabine (first compound 0.02 µM), 0.66; in the assay with Pictilisib + Decitabine (first compound 0.06325 µM), 0.609. For the same cell line, the results for the relative viability with Pictilisib + Decitabine (first compound 0.6325 µM) and in the assay with Pictilisib + Decitabine (first compound 2 µM) were 0.657 and 0.607, respectively.
NCI-H23: the relative viability with MK-2206 + Trametinib (first compound 0.01 µM) turned out to be 0.267; in the assay with MK-2206 + Trametinib (first compound 0.03162 µM), 0.342; with MK-2206 + Trametinib (first compound 0.3162 µM) it was 0.345; in the assay with MK-2206 + Trametinib (first compound 1 µM), 0.299; with Pictilisib + Decitabine (first compound 0.02 µM), 0.305; with Pictilisib + Decitabine (first compound 0.06325 µM) it was 0.333. In addition, the relative viability is 0.309 with Pictilisib + Decitabine (first compound 0.6325 µM) and 0.271 in the assay with Pictilisib + Decitabine (first compound 2 µM).
HCC-827: the relative viability is 0.541 with MK-2206 + Trametinib (first compound 0.01 µM); 0.548 with MK-2206 + Trametinib (first compound 0.03162 µM); 0.491 in the assay with MK-2206 + Trametinib (first compound 0.3162 µM); 0.444 in the assay with MK-2206 + Trametinib (first compound 1 µM); 0.258 in the assay with Pictilisib + Decitabine (first compound 0.02 µM); 0.363 with Pictilisib + Decitabine (first compound 0.06325 µM). The relative viability in the assay with Pictilisib + Decitabine (first compound 0.6325 µM) was determined as 0.288; with Pictilisib + Decitabine (first compound 2 µM), 0.311.
For PC-3 [JPC-3], the relative viability with MK-2206 + Trametinib (first compound 0.01 µM) is 0.686; with MK-2206 + Trametinib (first compound 0.03162 µM), 0.804; with MK-2206 + Trametinib (first compound 0.3162 µM) it was 0.599; with MK-2206 + Trametinib (first compound 1 µM), 0.735; with Pictilisib + Decitabine (first compound 0.02 µM), 0.84; with Pictilisib + Decitabine (first compound 0.06325 µM) it was 0.92. Moreover, the results for the relative viability in the assay with Pictilisib + Decitabine (first compound 0.6325 µM) and in the assay with Pictilisib + Decitabine (first compound 2 µM) were 0.813 and 0.748, respectively.
Take NCI-H1355: the relative viability with MK-2206 + Trametinib (first compound 0.01 µM) was found to be 0.407; in the assay with MK-2206 + Trametinib (first compound 0.03162 µM), 0.414; with MK-2206 + Trametinib (first compound 0.3162 µM), 0.363; with MK-2206 + Trametinib (first compound 1 µM), 0.378; in the assay with Pictilisib + Decitabine (first compound 0.02 µM), 0.336; in the assay with Pictilisib + Decitabine (first compound 0.06325 µM), 0.388. For the same cell line, the relative viability with Pictilisib + Decitabine (first compound 0.6325 µM) is 0.383; in the assay with Pictilisib + Decitabine (first compound 2 µM), 0.331.
For the cell line NCI-H727, the relative viability was 0.402 with MK-2206 + Trametinib (first compound 0.01 µM); 0.382 with MK-2206 + Trametinib (first compound 0.03162 µM); 0.388 in the assay with MK-2206 + Trametinib (first compound 0.3162 µM); 0.37 with MK-2206 + Trametinib (first compound 1 µM); 0.651 with Pictilisib + Decitabine (first compound 0.02 µM); 0.979 in the assay with Pictilisib + Decitabine (first compound 0.06325 µM). In addition, the relative viability with Pictilisib + Decitabine (first compound 0.6325 µM) worked out at 0.699; in the assay with Pictilisib + Decitabine (first compound 2 µM), 0.781.
As for NCI-H1975, the relative viability with MK-2206 + Trametinib (first compound 0.01 µM) came to 0.305; with MK-2206 + Trametinib (first compound 0.03162 µM), 0.352; in the assay with MK-2206 + Trametinib (first compound 0.3162 µM), 0.261; with MK-2206 + Trametinib (first compound 1 µM), 0.371; with Pictilisib + Decitabine (first compound 0.02 µM), 0.385; with Pictilisib + Decitabine (first compound 0.06325 µM), 0.377. Also, the relative viability with Pictilisib + Decitabine (first compound 0.6325 µM) is 0.329; with Pictilisib + Decitabine (first compound 2 µM), 0.257.
Turning to NCI-H460, the relative viability is 0.154 with MK-2206 + Trametinib (first compound 0.01 µM); 0.193 with MK-2206 + Trametinib (first compound 0.03162 µM); 0.0937 with MK-2206 + Trametinib (first compound 0.3162 µM); 0.0745 in the assay with MK-2206 + Trametinib (first compound 1 µM); 0.528 in the assay with Pictilisib + Decitabine (first compound 0.02 µM); 0.558 with Pictilisib + Decitabine (first compound 0.06325 µM). Besides, the figures for the relative viability in the assay with Pictilisib + Decitabine (first compound 0.6325 µM) and in the assay with Pictilisib + Decitabine (first compound 2 µM) were 0.301 and 0.109, respectively.
Regarding EPLC-272H, the relative viability worked out at 0.266 in the assay with MK-2206 + Trametinib (first compound 0.01 µM); 0.307 in the assay with MK-2206 + Trametinib (first compound 0.03162 µM); 0.298 with MK-2206 + Trametinib (first compound 0.3162 µM); 0.312 in the assay with MK-2206 + Trametinib (first compound 1 µM); 0.428 in the assay with Pictilisib + Decitabine (first compound 0.02 µM); 0.371 with Pictilisib + Decitabine (first compound 0.06325 µM). Besides, the relative viability stood at 0.319 with Pictilisib + Decitabine (first compound 0.6325 µM) and 0.171 with Pictilisib + Decitabine (first compound 2 µM).
Take SW 900: the relative viability with MK-2206 + Trametinib (first compound 0.01 µM) worked out at 0.809; in the assay with MK-2206 + Trametinib (first compound 0.3162 µM), 0.702; with MK-2206 + Trametinib (first compound 1 µM) it was 0.86; with Pictilisib + Decitabine (first compound 0.02 µM), 0.367; with Pictilisib + Decitabine (first compound 0.06325 µM), 0.524; with Pictilisib + Decitabine (first compound 0.6325 µM), 0.45. The relative viability with Pictilisib + Decitabine (first compound 2 µM) stood at 0.418.
As for NCI-H1648, the relative viability with MK-2206 + Trametinib (first compound 0.01 µM) amounted to 0.491; with MK-2206 + Trametinib (first compound 0.03162 µM) it was 0.497; in the assay with MK-2206 + Trametinib (first compound 0.3162 µM), 0.591; in the assay with MK-2206 + Trametinib (first compound 1 µM), 0.497; with Pictilisib + Decitabine (first compound 0.02 µM), 0.528; in the assay with Pictilisib + Decitabine (first compound 0.06325 µM), 0.469. Moreover, the values for the relative viability in the assay with Pictilisib + Decitabine (first compound 0.6325 µM) and with Pictilisib + Decitabine (first compound 2 µM) were 0.367 and 0.319, respectively.
SK-LU-1: the relative viability with MK-2206 + Trametinib (first compound 0.01 µM) was 0.556; in the assay with MK-2206 + Trametinib (first compound 0.03162 µM), 0.513; in the assay with MK-2206 + Trametinib (first compound 0.3162 µM), 0.449; in the assay with MK-2206 + Trametinib (first compound 1 µM), 0.431; in the assay with Pictilisib + Decitabine (first compound 0.02 µM), 0.612; with Pictilisib + Decitabine (first compound 0.06325 µM), 0.695. Moreover, the relative viability with Pictilisib + Decitabine (first compound 0.6325 µM) worked out at 0.559; with Pictilisib + Decitabine (first compound 2 µM) it was 0.525.
For the cell line NCI-H322M, the relative viability amounted to 0.475 with MK-2206 + Trametinib (first compound 0.01 µM); 0.505 in the assay with MK-2206 + Trametinib (first compound 0.03162 µM); 0.495 with MK-2206 + Trametinib (first compound 0.3162 µM); 0.546 with MK-2206 + Trametinib (first compound 1 µM); 0.735 in the assay with Pictilisib + Decitabine (first compound 0.02 µM); 0.696 in the assay with Pictilisib + Decitabine (first compound 0.06325 µM). The relative viability in the assay with Pictilisib + Decitabine (first compound 0.6325 µM) was found to be 0.656; with Pictilisib + Decitabine (first compound 2 µM), 0.43.
Turning to NCI-H2405, the relative viability is 0.697 in the assay with MK-2206 + Trametinib (first compound 0.01 µM); 0.682 with MK-2206 + Trametinib (first compound 0.03162 µM); 0.668 with MK-2206 + Trametinib (first compound 0.3162 µM); 0.533 with MK-2206 + Trametinib (first compound 1 µM); 0.765 with Pictilisib + Decitabine (first compound 0.02 µM); 0.72 with Pictilisib + Decitabine (first compound 0.06325 µM). The relative viability is 0.571 in the assay with Pictilisib + Decitabine (first compound 0.6325 µM) and 0.388 with Pictilisib + Decitabine (first compound 2 µM).
NCI-H1666: the relative viability was 0.925 in the assay with MK-2206 + Trametinib (first compound 0.01 µM); 0.79 in the assay with MK-2206 + Trametinib (first compound 0.03162 µM); 0.807 with MK-2206 + Trametinib (first compound 0.3162 µM); 0.892 with MK-2206 + Trametinib (first compound 1 µM); 0.659 with Pictilisib + Decitabine (first compound 0.02 µM); 0.719 in the assay with Pictilisib + Decitabine (first compound 0.06325 µM). Besides, the relative viability is 0.702 in the assay with Pictilisib + Decitabine (first compound 0.6325 µM) and 0.574 in the assay with Pictilisib + Decitabine (first compound 2 µM).

Values taken from the supplement of paper PMC10307832.
